Experimental data as given in patent US8946426B2, “Substituted bicyclic heterocyclic compounds as gamma secretase modulators” (Janssen Pharmaceuticals, Inc., priority 2009, dated 2015).

What was measured:
Aβtotal = assay: Method 1: Aβtotal sandwich ELISA in supernatant of SKNBE2 cells carrying APP 695-wild type (Tables 7a, 7b); format: cell-based
Protocol: (§1) Screening was carried out using SKNBE2 cells carrying the APP 695-wild type, grown in Dulbecco's Modified Eagle's Medium/Nutrient mixture F-12 (DMEM/NUT-mix F-12) (HAM) provided by Gibco (cat no. 31330-38) containing 5% Serum/Fe supplemented with 1% non-essential amino acids. Cells were grown to near confluency.
(§2) The screening was performed using the assay as described in Citron et al (1997) Nature Medicine 3: 67. Briefly, cells were plated in a 96-well plate at about 10^5 cells/ml one day prior to addition of compounds. Compounds were added to the cells in Ultraculture (Lonza, BE12-725F) supplemented with 1% glutamine (Invitrogen, 25030-024) for 18 Hours. The media were assayed by two sandwich ELISAs, for Aβ42 and Aβtotal. Toxicity of the compounds was assayed by WST-1 cell proliferation reagent (Roche, 1 644 807) according to the manufacturer's protocol.
To quantify the amount of Aβtotal in the cell supernatant, samples and standards were added to a 6E10-coated plate. The plate was allowed to incubate overnight at 4° C. in order to allow formation of the antibody-amyloid complex. Following this incubation and subsequent wash steps a selective anti-Aβ-antibody conjugate (biotinylated 4G8) was added and incubated for a minimum of 1 Hour in order to allow formation of the antibody-Amyloid-antibody-complex. After incubation and appropriate wash steps, a Streptavidine-Peroxidase-Conjugate was added, followed 30 minutes later by an addition of Quanta Blu fluorogenic peroxidase substrate according to the manufacturer's instructions (Pierce Corp., Rockford, Ill.).
(§3) To obtain the values reported in Table 7a, the sigmoidal dose response curves were analysed by computerised curve-fitting, with percent of inhibition plotted against compound concentration. A 4-parameter equation (model 205) in XLfit was used to determine the IC50. The top and the bottom of the curve were fixed to 100 and 0, respectively, and the hill slope was fixed to 1. The IC50 represents the concentration of a compound that is required for inhibiting a biological effect by 50% (Here, it is the concentration where Aβ peptide level is reduced by 50%).
(§4) To obtain the values reported in Table 7b, the data were calculated as percentage of the maximum amount of amyloid Beta 42 measured in the absence of the test compound. The sigmoidal dose response curves were analyzed using non-linear regression analysis with percentage of the control plotted against the log concentration of the compound. A 4-parameter equation was used to determine the IC50. The values reported in Table 7b are averaged IC50 values.

Aβ42 = assay: Method 1: Aβ42 sandwich ELISA in supernatant of SKNBE2 cells carrying APP 695-wild type (Tables 7a, 7b); format: cell-based
Protocol: as §1, §2
To quantify the amount of Aβ42 in the cell supernatant, commercially available Enzyme-Linked-Immunosorbent-Assay (ELISA) kits were used (Innotest® β-Amyloid(1-42), Innogenetics N.V., Ghent, Belgium). The Aβ42 ELISA was performed essentially according to the manufacturer's protocol. Briefly, the standards (dilutions of synthetic Aβ1-42) were prepared in polypropylene Eppendorf with final concentrations of 8000 down to 3.9 pg/ml (½ dilution step). Samples, standards and blanks (100 μl) were added to the anti-Aβ42-coated plate supplied with the kit (the capture antibody selectively recognizes the C-terminal end of the antigen). The plate was allowed to incubate 3 H at 25° C. in order to allow formation of the antibody-amyloid complex. Following this incubation and subsequent wash steps a selective anti-Aβ-antibody conjugate (biotinylated 3D6) was added and incubated for a minimum of 1 Hour in order to allow formation of the antibody-Amyloid-antibody-complex. After incubation and appropriate wash steps, a Streptavidine-Peroxidase-Conjugate was added, followed 30 minutes later by an addition of 3,3′,5,5′-tetramethylbenzidine (TMB)/peroxide mixture, resulting in the conversion of the substrate into a coloured product. This reaction was stopped by the addition of sulfuric acid (0.9 N) and the colour intensity was measured by means of photometry with an ELISA-reader with a 450 nm filter.
as §3, §4

[1] = Homo sapiens, SKNBE2, Table 7b, averaged IC50, non-linear regression of percentage of control vs log concentration, 4-parameter equation
[2] = Homo sapiens, Table 7a, SKNBE2 cells, compounds 18 h, XLfit 4-parameter fit of percent inhibition, top/bottom fixed to 100/0, hill slope 1
[3] = Table 7a, SKNBE2 cells, compounds 18 h, XLfit 4-parameter fit of percent inhibition, top/bottom fixed to 100/0, hill slope 1
[4] = Table 7b, averaged IC50, non-linear regression of percentage of control vs log concentration, 4-parameter equation

Structure (SMILES): COc1cccc(-c2nc3c(Nc4ccc(-c5cnc(C)s5)c(OC)c4)cccn3c2C)c1 [Compound 4]
- IC50 (Aβtotal; [1]): > 3000 nM
- IC50 (Aβtotal; [2]): > 3000 nM
- IC50 (Aβ42; [1]): 63 nM
- IC50 (Aβ42; [2]): 67 nM

Structure (SMILES): COc1cccc(-c2nc3c(Nc4ccc(-c5sc(C)nc5C)c(OC)c4)cccn3c2C)c1 [Compound 5]
- IC50 (Aβtotal; [1]): > 3000 nM
- IC50 (Aβtotal; [2]): > 3000 nM
- IC50 (Aβ42; [1]): 78 nM
- IC50 (Aβ42; [2]): 63 nM

Structure (SMILES): COc1cccc(-c2nc3c(Nc4ccc(-c5cn(C)nc5C)c(OC)c4)cccn3c2C)c1 [Compound 6]
- IC50 (Aβtotal; [1]): > 3000 nM
- IC50 (Aβtotal; [2]): > 3000 nM
- IC50 (Aβ42; [1]): 102 nM
- IC50 (Aβ42; [2]): 77 nM

Structure (SMILES): COc1cc(Nc2cccn3cc(-c4ccc(F)cc4)nc23)ccc1-c1oc(C)nc1C [Compound 7]
- IC50 (Aβtotal; [1]): > 10000 nM
- IC50 (Aβtotal; [2]): > 10000 nM
- IC50 (Aβ42; [1]): 302 nM
- IC50 (Aβ42; [2]): 334 nM

Structure (SMILES): COc1cc(Nc2cccn3c(C)c(-c4ccccc4)nc23)ccc1-c1oc(C)nc1C [Compound 8]
- IC50 (Aβtotal; [1]): > 5000 nM
- IC50 (Aβtotal; [2]): > 5000 nM
- IC50 (Aβ42; [1]): 282 nM
- IC50 (Aβ42; [2]): 275 nM

Structure (SMILES): COc1cc(Nc2cccc3c2nc(-c2ccc(F)cc2)n3C)ccc1-c1ccnn1C [Compound 9]
- IC50 (Aβtotal; [1]): > 3000 nM
- IC50 (Aβtotal; [2]): > 3000 nM
- IC50 (Aβ42; [1]): 240 nM
- IC50 (Aβ42; [2]): 399 nM

Structure (SMILES): Cc1ncc(-c2ccc(Nc3cccc4c3nc(-c3ccc(F)cc3)n4C(C)C)nc2)o1 [Compound 15]
- IC50 (Aβtotal; [1]): > 3000 nM
- IC50 (Aβ42; [1]): 100 nM

Structure (SMILES): Cc1ncc(-c2ccc(Nc3cccc4c3nc(-c3ccc(F)cc3)n4C(C)C)cc2)o1 [Compound 19]
- IC50 (Aβtotal; [3]): > 3000 nM
- IC50 (Aβtotal; [4]): > 3000 nM
- IC50 (Aβ42; [3]): 49 nM
- IC50 (Aβ42; [4]): 28 nM

Structure (SMILES): COc1cccc(-c2nc3c(Nc4ccc(-c5ocnc5C)c(OC)c4)cccc3n2C)c1 [Compound 20]
- IC50 (Aβtotal; [3]): > 1000 nM
- IC50 (Aβtotal; [4]): > 1000 nM
- IC50 (Aβ42; [3]): 13 nM
- IC50 (Aβ42; [4]): 17 nM

Structure (SMILES): COc1cccc(-c2nc3c(Nc4ccc(-c5cnc(C)o5)cc4)cccc3n2C(C)C)c1 [Compound 21]
- IC50 (Aβtotal; [4]): > 3000 nM
- IC50 (Aβ42; [4]): 9 nM

Structure (SMILES): Cc1ncc(-c2ccc(Nc3nccc4c3nc(-c3ccc(F)cc3)n4C)cc2)o1 [Compound 23]
- IC50 (Aβtotal; [3]): > 3000 nM
- IC50 (Aβtotal; [4]): > 3000 nM
- IC50 (Aβ42; [3]): 417 nM
- IC50 (Aβ42; [4]): 398 nM

Structure (SMILES): COc1cc(Nc2cccc3c2nc(-c2ccc(F)cc2)n3C)ccc1-c1oc(C)nc1C [Compound 24]
- IC50 (Aβtotal; [3]): > 3000 nM
- IC50 (Aβtotal; [4]): > 3000 nM
- IC50 (Aβ42; [3]): 56 nM
- IC50 (Aβ42; [4]): 55 nM

Structure (SMILES): COc1cc(Nc2nccc3c2nc(-c2ccc(F)cc2)n3C(C)C)ccc1-c1cnc(C)o1 [Compound 27]
- IC50 (Aβtotal; [4]): > 3000 nM
- IC50 (Aβ42; [4]): 676 nM

Structure (SMILES): Cc1ncc(-c2ccc(Nc3cccc4c3nc(-c3ccc(F)cc3)n4C(C)C)cc2F)o1 [Compound 28]
- IC50 (Aβtotal; [4]): > 3000 nM
- IC50 (Aβ42; [4]): 110 nM

Structure (SMILES): Cc1ncc(-c2ccc(Nc3cccc4c3nc(-c3ccc(F)cc3)n4C)cn2)o1 [Compound 29]
- IC50 (Aβtotal; [3]): > 3000 nM
- IC50 (Aβtotal; [4]): > 3000 nM
- IC50 (Aβ42; [3]): 29 nM
- IC50 (Aβ42; [4]): 28 nM

Structure (SMILES): Cc1ncoc1-c1ccc(Nc2cccc3c2nc(-c2cccc(Cl)c2)n3C)nc1 [Compound 32]
- IC50 (Aβtotal; [3]): > 10000 nM
- IC50 (Aβtotal; [4]): > 10000 nM
- IC50 (Aβ42; [3]): 235 nM
- IC50 (Aβ42; [4]): 282 nM

Structure (SMILES): COc1cc(-c2nc3c(Nc4ccc(-c5ocnc5C)cn4)cccc3n2C)ccc1Cl [Compound 33]
- IC50 (Aβtotal; [3]): > 10000 nM
- IC50 (Aβtotal; [4]): > 10000 nM
- IC50 (Aβ42; [3]): 102 nM
- IC50 (Aβ42; [4]): 141 nM

Structure (SMILES): Cc1ncoc1-c1ccc(Nc2cccc3c2nc(-c2ccc(F)cc2)n3C(C)(C)C)cn1 [Compound 34]
- IC50 (Aβtotal; [3]): > 3000 nM
- IC50 (Aβtotal; [4]): > 3000 nM
- IC50 (Aβ42; [3]): 16 nM
- IC50 (Aβ42; [4]): 110 nM

Structure (SMILES): COCCn1c(C)nc2c(Nc3ccc(-c4cnc(C)s4)c(OC)c3)cccc21 [Compound 37]
- IC50 (Aβtotal; [4]): > 3000 nM
- IC50 (Aβ42; [4]): 380 nM

Structure (SMILES): Cc1ncc(-c2ccc(Nc3cccn4cc(-c5ccccc5C)nc34)cc2)o1 [Compound 39]
- IC50 (Aβtotal; [3]): > 3000 nM
- IC50 (Aβtotal; [4]): > 3000 nM
- IC50 (Aβ42; [3]): 53 nM
- IC50 (Aβ42; [4]): 51 nM

Structure (SMILES): Cc1ncc(-c2ccc(Nc3cccn4cc(-c5ccc(F)cc5)nc34)cc2)o1 [Compound 42]
- IC50 (Aβtotal; [3]): > 3000 nM
- IC50 (Aβtotal; [4]): > 3000 nM
- IC50 (Aβ42; [3]): 96 nM
- IC50 (Aβ42; [4]): 123 nM

Structure (SMILES): Cc1cc(F)ccc1-c1cn2cccc(Nc3ccc(-c4ocnc4C)nc3)c2n1 [Compound 44]
- IC50 (Aβtotal; [3]): > 10000 nM
- IC50 (Aβtotal; [4]): > 10000 nM
- IC50 (Aβ42; [3]): 140 nM
- IC50 (Aβ42; [4]): 138 nM

Structure (SMILES): Cc1ccc(-c2cn3cccc(Nc4ccc(-c5ocnc5C)nc4)c3n2)c(F)c1 [Compound 45]
- IC50 (Aβtotal; [3]): > 30000 nM
- IC50 (Aβtotal; [4]): > 30000 nM
- IC50 (Aβ42; [3]): 848 nM
- IC50 (Aβ42; [4]): 813 nM

Structure (SMILES): Cc1ncc(-c2ccc(Nc3cccn4cc(-c5ccc(F)cc5C)nc34)cc2)o1 [Compound 46]
- IC50 (Aβtotal; [4]): > 3000 nM
- IC50 (Aβ42; [4]): 110 nM

Structure (SMILES): Cc1ccc(-c2cn3cccc(Nc4ccc(-c5cnc(C)o5)cc4)c3n2)c(F)c1 [Compound 47]
- IC50 (Aβtotal; [3]): > 3000 nM
- IC50 (Aβtotal; [4]): > 3000 nM
- IC50 (Aβ42; [3]): 486 nM
- IC50 (Aβ42; [4]): 447 nM

Structure (SMILES): COc1cc(Nc2cccn3cc(-c4cc(F)ccc4C)nc23)ccc1-c1cnc(C)o1 [Compound 48]
- IC50 (Aβtotal; [4]): > 10000 nM
- IC50 (Aβ42; [4]): 132 nM

Structure (SMILES): Cc1ccc(C(F)(F)F)cc1-c1cn2cccc(Nc3ccc(-c4ocnc4C)nc3)c2n1 [Compound 51]
- IC50 (Aβtotal; [4]): > 3000 nM
- IC50 (Aβ42; [4]): 72 nM

Structure (SMILES): COc1cc(Nc2cccn3cc(-c4ccccc4C)nc23)ccc1-c1cnc(C)s1 [Compound 52]
- IC50 (Aβtotal; [4]): > 3000 nM
- IC50 (Aβ42; [4]): 166 nM

Structure (SMILES): Cc1ncc(-c2ccc(Nc3nccc4c3nc(-c3ccc(F)cc3F)n4C)cc2)o1 [Compound 53]
- IC50 (Aβtotal; [4]): > 10000 nM
- IC50 (Aβ42; [4]): 1900 nM

Structure (SMILES): Cc1ncc(-c2ccc(Nc3nccc4c3nc(-c3ccc(F)cc3F)n4C)cc2F)o1 [Compound 55]
- IC50 (Aβtotal; [4]): > 10000 nM
- IC50 (Aβ42; [4]): 3020 nM

Structure (SMILES): Cc1ncc(-c2ccc(Nc3nccn4cc(-c5ccc(F)cc5C)nc34)cc2)o1 [Compound 57]
- IC50 (Aβtotal; [4]): > 10000 nM
- IC50 (Aβ42; [4]): 1070 nM

Structure (SMILES): Cc1ncc(-c2ccc(Nc3nc(Br)cn4cc(-c5ccc(F)cc5C)nc34)cc2)o1 [Compound 60]
- IC50 (Aβtotal; [4]): > 3000 nM
- IC50 (Aβ42; [4]): 3020 nM

Structure (SMILES): Cc1ncoc1-c1ccc(Nc2cccc3c2nc(COc2ccccc2)n3C)cn1 [Compound 61]
- IC50 (Aβtotal; [4]): > 3000 nM
- IC50 (Aβ42; [4]): 1070 nM

Structure (SMILES): COc1cc(-c2nc3c(Nc4ccc(-c5cnc(C)o5)c(OC)c4)cccc3n2C)ccc1Cl [Compound 62]
- IC50 (Aβtotal; [4]): > 3000 nM
- IC50 (Aβ42; [4]): 9 nM
